Source: patent US20230273203A1, “METHOD FOR DETERMINING FORMULATION OF COMBINATION CONSISTING OF MULTIPLE CANDIDATE SUBSTRATES OF SMELL, TASTE, OR SOMATIC SENSATION AND REPRODUCING SMELL, TASTE, OR SOMATIC SENSATION OF TARGET SUBSTANCE” (Japan Tobacco Inc., priority 2020, published 2023)

What was measured:
OR3 = assay: Olfactory receptor response measurement, CRE-luciferase reporter in HEK-Olf cells; format: cell-based, human; conditions: ◯ = receptor responds to the fragrance; luminescence after 3 hours
OR9 = assay: as above; format: cell-based, human; conditions: ◯ = receptor responds to the fragrance; luminescence after 3 hours
OR1 = assay: as above; format: cell-based, human; conditions: ◯ = receptor responds to the fragrance; luminescence after 3 hours
Text: (§1) An olfactory receptor gene library (pFN21KSPc HaloTag-OR) prepared by inserting 351 human olfactory receptor genes obtained from a human cDNA library into the pFN21KSPc HaloTag vector was purchased from Kazusa Genome Technologies. Of the 351 types, olfactory receptors OR1A1, OR2B11, and the like were polymorphisms known to show low responses to known agonists, such that the olfactory receptors were modified into polymorphisms with high responsiveness for use in the subsequent test (Joel D. Mainland, et al., Nat Neurosci. 2014; 17(1): p. 114-120).
(§2) The cell line HEK-Olf obtained in Example 1 was prepared in DMEM medium (Thermo Fisher) and then seeded in a 96-well plate (Corning) at 1×10^4 cells/well. Subsequently, pFN21KSPc HaloTag-OR and pGL4.29[luc2P/CRE/Hygro] Vector (Promega) were introduced into the HEK-Olf with ViaFect (trademark) Transfection Reagent (Promega). At this time, pFN21KSPc HaloTag-OR and pGL4.29[luc2P/CRE/Hygro] Vector were prepared to give 70 ng/well and 30 ng/well, respectively. Using each olfactory receptor expressing HEK-Olf thus constructed, measurement of responses of the olfactory receptors was performed as follows.
(§3) Each olfactory receptor expressing HEK-Olf obtained above was cultured for 24 hours at 37° C. under 5% CO2; then the medium was removed, and test compounds (candidate substances) prepared appropriately in DMEM medium were added in 50 μL aliquots. DMEM medium containing no test compound was added to negative control wells, and forskolin adjusted to 3 μM was added to positive control wells. After 3 hours of reaction at 37° C. under 5% CO2, responses of the olfactory receptors were obtained by luminescence measurement using ONE-Glo (trademark) Luciferase Assay kit (Promega).
(§4) The response intensity R of an olfactory receptor at each concentration was calculated using the luminescence intensity (RLU) obtained in the measurement, based on formula (6) below: […]
(§5) Furthermore, using the curve fitting software XLFit (IDBS), the maximum response intensity and EC50 of the dose response curve were derived.

OR2 = assay: as above; format: cell-based, human; conditions: ◯ = receptor responds to the fragrance; luminescence after 3 hours
Text: as §1, §2, §3, §4, §5

OR6 = assay: as above; format: cell-based, human; conditions: ◯ = receptor responds to the fragrance; luminescence after 3 hours
Text: as §1, §2, §3, §4, §5

OR4 = assay: as above; format: cell-based, human; conditions: ◯ = receptor responds to the fragrance; luminescence after 3 hours
Text: as §1, §2, §3, §4, §5

OR5 = assay: as above; format: cell-based, human; conditions: ◯ = receptor responds to the fragrance; luminescence after 3 hours
Text: as §1, §2, §3, §4, §5

[1] = Sensory evaluation of similarity in odor quality to coumarin (VAS); format: in vivo, human; conditions: headspace aroma, panel of five trained experts, samples in propylene glycol at Table 2 concentrations; FIG. 4
Procedure: In this example, similarity in odor quality between coumarin and the coumarin reconstitution fragrance obtained in Example 3 was verified by sensory evaluation. In the sensory evaluation, the verification was performed by a panel of five trained experts. The similarity in odor was obtained by evaluating the similarity between the headspace aromas of coumarin presented as a reference and each evaluation sample presented blindly, using a Visual Analog Scale (VAS).

OR7 = assay: Olfactory receptor response measurement, CRE-luciferase reporter in HEK-Olf cells; format: cell-based, human; conditions: ◯ = receptor responds to the fragrance; luminescence after 3 hours
OR8 = assay: as above; format: cell-based, human; conditions: ◯ = receptor responds to the fragrance; luminescence after 3 hours
[2] = tested on: 351 human olfactory receptors; assay: Response screen of 351 human olfactory receptors; format: cell-based; conditions: out of 351 human olfactory receptors; all responders class II
Text: as §1, with “114-120). […]” for “114-120).”
as §3, with “DMEM medium containing no test compound was added to negative control wells, and forskolin adjusted to 3 μM was added to positive control wells.” left out
as §4
Based on the above-described procedure, 351 human olfactory receptors were measured for responses to coumarin as a fragrance. […]

OR10 = assay: Olfactory receptor response measurement, CRE-luciferase reporter in HEK-Olf cells; format: cell-based, human; conditions: ◯ = receptor responds to the fragrance; luminescence after 3 hours
Text: as §1
The cell line HEK-Olf obtained in Example 1 was prepared in DMEM medium (Thermo Fisher) and then seeded in a 96-well plate (Corning) at 1×10^4 cells/well. Subsequently, pFN21KSPc HaloTag-OR and pGL4.29[luc2P/CRE/Hygro] […]
as §3, with “DMEM medium containing no test compound was added to negative control wells, and forskolin adjusted to 3 μM was added to positive control wells.” left out
as §4

## CC(C)[C@@H]1CC[C@@H](C)CC1=O [Menthone, menthone]
OR3
  response of olfactory receptor OR3 to the fragrance: ◯

## CCCCC(=O)OCC [Ethyl Valerate, ethyl valerate]
OR9
  response of olfactory receptor OR9 to the fragrance: ◯

## O=Cc1ccc2c(c1)OCO2 [Piperonal, piperonal]
OR1
  response of olfactory receptor OR1 to the fragrance: ◯
OR2
  response of olfactory receptor OR2 to the fragrance: ◯
OR6
  response of olfactory receptor OR6 to the fragrance: ◯
OR4
  response of olfactory receptor OR4 to the fragrance: ◯
OR5
  response of olfactory receptor OR5 to the fragrance: ◯
[1]
  similarity in odor quality to coumarin (VAS): low similarity

## O=C(O)C=Cc1ccccc1O [o-Hydroxycinnamic Acid, o-hydroxycinnamic acid]
OR7
  response of olfactory receptor OR7 to the fragrance: ◯
OR9
  response of olfactory receptor OR9 to the fragrance: ◯
OR8
  response of olfactory receptor OR8 to the fragrance: ◯

## O=c1ccc2ccccc2o1 [coumarin, reference compound]
OR1
  response of olfactory receptor OR1 to the fragrance: confirmed to respond
OR2
  response of olfactory receptor OR2 to the fragrance: confirmed to respond
OR6
  response of olfactory receptor OR6 to the fragrance: confirmed to respond
OR4
  response of olfactory receptor OR4 to the fragrance: confirmed to respond
OR5
  response of olfactory receptor OR5 to the fragrance: confirmed to respond
OR3
  response of olfactory receptor OR3 to the fragrance: confirmed to respond
[2]
  number of olfactory receptors showing dose-dependent responses: six

## C=C(C)[C@@H]1CCC2=CC(=O)C[C@@H](C)[C@]2(C)C1 [Nootkatone, nootkatone]
OR10
  response of olfactory receptor OR10 to the fragrance: ◯
OR7
  response of olfactory receptor OR7 to the fragrance: ◯
OR9
  response of olfactory receptor OR9 to the fragrance: ◯
OR8
  response of olfactory receptor OR8 to the fragrance: ◯

## CCCC1CCC(=O)O1 (stereo not shown) [γ-Heptalactone, γ-heptalactone]
OR1
  response of olfactory receptor OR1 to the fragrance: ◯
OR5
  response of olfactory receptor OR5 to the fragrance: ◯
OR3
  response of olfactory receptor OR3 to the fragrance: ◯
